Where a name gives a salt, the structure may show the parent alone. Read-outs that look alike come from different tables or passages of the source.
Tests used:
[1] = target: T1, human cloned 5-HT6 receptors (Homo sapiens, UniProt P50406); experiment: Comparative evaluation of 5-HT6 binding affinity ([3H]-LSD displacement, Hela cell membranes)
T1 construct: expressed in transfected cells; host or cells: Hela cells
Experimental: The affinity of test compounds for the serotonin 5-HT6 receptor is evaluated in the following manner. Cultured Hela cells expressing human cloned 5-HT6 receptors are harvested and centrifuged at low speed (1,000×g) for 10.0 min to remove the culture media. The harvested cells are suspended in half volume of fresh physiological phosphate buffered saline solution and recentrifuged at the same speed. This operation is repeated. The collected cells are then homogenized in ten volumes of 50 mM Tris.HCl (pH 7.4) and 0.5 mM EDTA. The homogenate is centrifuged at 40,000×g for 30.0 min and the precipitate is collected. The obtained pellet is resuspended in 10 volumes of Tris.HCl buffer and recentrifuged at the same speed. The final pellet is suspended in a small volume of Tris.HCl buffer and the tissue protein content is determined in aliquots of 10-25 μl volumes. Bovine Serum Albumin is used as the standard in the protein determination according to the method described in Lowry et al., J. Biol. Chem., 193:265 (1951). The volume of the suspended cell membranes is adjusted to give a tissue protein concentration of 1.0 mg/ml of suspension. The prepared membrane suspension (10 times concentrated) is aliquoted in 1.0 ml volumes and stored at −70° C. until used in subsequent binding experiments.
Binding experiments are performed in a 96 well microtiter plate format, in a total volume of 200 μl. […] The test compounds are added in 20.0 μl volume.
The reaction is allowed to proceed in the dark for 120 min at room temperature, at which time, the bound ligand-receptor complex is filtered off on a 96 well unifilter with a Packard Filtermate® 196 Harvester. The bound complex caught on the filter disk is allowed to air dry and the radioactivity is measured in a Packard TopCount® equipped with six photomultiplier detectors, after the addition of 40.0 μl Microscint®-20 scintillant to each shallow well. The unifilter plate is heat-sealed and counted in a PackardTopCount® with a tritium efficiency of 31.0%.
Binding in the presence of varying concentrations of test compound is expressed as a percentage of specific binding in the absence of test compound. The results are plotted as log % bound versus log concentration of test compound. […] A linear regression line of data points is plotted, from which the IC50 value is determined and the Ki value is determined based upon the following equation: […]
where L is the concentration of the radioactive ligand used and KD is the dissociation constant of the ligand for the receptor, both expressed in nM.

[2] = [3H]-LSD 3.0 nM, membranes of Hela cells expressing human cloned 5-HT6 receptors, 120 min, room temperature, read-out: 5-HT6 Binding Ki

T1 sequence (P50406 whole entry): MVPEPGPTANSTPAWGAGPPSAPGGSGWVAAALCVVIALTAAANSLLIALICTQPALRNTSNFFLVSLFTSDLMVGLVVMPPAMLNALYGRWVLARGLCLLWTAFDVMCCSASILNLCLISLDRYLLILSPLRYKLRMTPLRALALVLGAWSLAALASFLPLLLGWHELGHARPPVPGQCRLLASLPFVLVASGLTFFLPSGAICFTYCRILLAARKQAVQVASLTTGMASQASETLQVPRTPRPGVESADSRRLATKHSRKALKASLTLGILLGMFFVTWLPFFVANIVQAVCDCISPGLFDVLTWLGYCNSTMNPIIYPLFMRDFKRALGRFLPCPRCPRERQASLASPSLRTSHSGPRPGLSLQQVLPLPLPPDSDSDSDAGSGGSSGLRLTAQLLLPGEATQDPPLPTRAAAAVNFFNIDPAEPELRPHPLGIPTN

Compound	Ki [1, 2]	also measured
COc1ccc(S(=O)(=O)n2cc(CC3CCNCC3)c3cc(F)ccc32)cc1OC (as salt: hydrochloride) [Example 18, 1-[(3,4-dimethoxyphenyl)sulfonyl]-5-fluoro-3-(piperidin-4-ylmethyl)-1H-indole]	–	melting point: 246 °C
N#Cc1ccc(S(=O)(=O)n2cc(CC3CCNCC3)c3cc(F)ccc32)cc1 (as salt: hydrochloride) [Example 19, 4-{[5-fluoro-3-(piperidin-4-ylmethyl)-1H-indol-1-yl]sulfonyl}benzonitrile]	–	melting point: 249 °C
O=S(=O)(c1cccc2cccnc12)n1cc(CC2CCNCC2)c2cc(F)ccc21 (as salt: hydrochloride) [Example 20, 8-{[5-fluoro-3-(piperidin-4-ylmethyl)-1H-indol-1-yl]sulfonyl}quinoline]	–	melting point: 245 °C
Nc1ccc(S(=O)(=O)n2cc(CC3CCNCC3)c3ccc(F)cc32)cc1 (as salt: hydrochloride) [Example 28]	–	melting point: 198 to 200 °C
CC(C)C[C@H]1C(=O)N2CCC[C@H]2[C@]2(O)O[C@](NC(=O)[C@@H]3C=C4c5cccc6[nH]c(Br)c(c56)C[C@H]4N(C)C3)(C(C)C)C(=O)N12 [Bromocriptine, reference compound]	–	Ki [1]: 23 nM
O=S(=O)(c1ccccc1)n1cc(CC2CCNCC2)c2ccc(F)cc21 [Example 21, 6-flouro-1-(phenylsulfonyl)-3-(4-piperidinylmethyl)-1H-indole]	13 nM	–
O=S(=O)(c1cccc2ccccc12)n1cc(CC2CCNCC2)c2ccc(F)cc21 [Example 22, 6-flouro-1-(1-naphthylsulfonyl)-3-(4-piperidinylmethyl)-1H-indole]	24 nM	–
COc1ccc(S(=O)(=O)n2cc(CC3CCNCC3)c3ccc(F)cc32)cc1OC [Example 23, 6-flouro-1-(3,4-dimethoxyphenylsulfonyl)-3-(4-piperidinylmethyl)-1H-indole]	19 nM	–
O=S(=O)(c1ccccc1Cl)n1cc(CC2CCNCC2)c2ccc(F)cc21 [Example 24, 6-flouro-1-(2-chlorophenylsulfonyl)-3-(4-piperidinylmethyl)-1H-indole]	13 nM	–
O=S(=O)(c1ccc(Cl)s1)n1cc(CC2CCNCC2)c2ccc(F)cc21 [Example 25, 6-flouro-1-(5-chlorothien-2-ylsulfonyl)-3-(4-piperidinylmethyl)-1H-indole]	18 nM	–
O=S(=O)(c1ccccc1F)n1cc(CC2CCNCC2)c2ccc(F)cc21 [Example 26, 6-flouro-1-(2-fluorophenylsulfonyl)-3-(4-piperidinylmethyl)-1H-indole]	17 nM	–
O=S(=O)(c1cccc(F)c1)n1cc(CC2CCNCC2)c2ccc(F)cc21 [Example 27, 6-flouro-1-(3-fluorophenylsulfonyl)-3-(4-piperidinylmethyl)-1H-indole]	29 nM	–
CN1CCN(C2=Nc3ccccc3Oc3ccc(Cl)cc32)CC1 [Loxapine, reference compound]	41.4 nM	–

The next lines start with results.

Ki [1, 2]	Compound	also measured
12 nM	O=S(=O)(c1ccccc1)n1cc(CC2CCNCC2)c2cc(F)ccc21 [Example 6, 5-Fluoro-1-phenylsulfonyl)-3-(4-piperidinylmethyl)-1H-indole hydrochloride]	–
1 nM	Nc1ccc(S(=O)(=O)n2cc(CC3CCNCC3)c3cc(F)ccc32)cc1 [Example 7, 4-{[5-Fluoro-3-(4-piperidinylmethyl)-1H-indole-1-yl]sulfonyl}aniline]	–
13 nM	O=S(=O)(c1cccc2ccccc12)n1cc(CC2CCNCC2)c2cc(F)ccc21 [Example 10, 5-Fluoro-1-(1-naphthylsulfonyl)-3-(4-piperidinylmethyl)-1H-indole hydrochloride]	–
8 nM	COc1ccc(S(=O)(=O)n2cc(CC3CCNCC3)c3cc(F)ccc32)cc1OC [Example 18, 1-[(3,4-dimethoxyphenyl)sulfonyl]-5-fluoro-3-(piperidin-4-ylmethyl)-1H-indole]	–
162 nM	N#Cc1ccc(S(=O)(=O)n2cc(CC3CCNCC3)c3cc(F)ccc32)cc1 [Example 19, 4-{[5-fluoro-3-(piperidin-4-ylmethyl)-1H-indol-1-yl]sulfonyl}benzonitrile]	–
2 nM	O=S(=O)(c1cccc2cccnc12)n1cc(CC2CCNCC2)c2cc(F)ccc21 [Example 20, 8-{[5-fluoro-3-(piperidin-4-ylmethyl)-1H-indol-1-yl]sulfonyl}quinoline]	–
3 nM	Nc1ccc(S(=O)(=O)n2cc(CC3CCNCC3)c3ccc(F)cc32)cc1 [Example 28]	–
